Target: T1, FXR ligand binding domain (GST-FXR LBD fusion protein, human FXR aa 193-473) (Homo sapiens, UniProt Q96RI1)
T1 construct: fused on or other part: Glutathione-S-transferase (GST) fused N-terminally to the FXR LBD, used to capture the protein on glutathione SPA beads
T1 sequence (Q96RI1 211-486 limits assumed): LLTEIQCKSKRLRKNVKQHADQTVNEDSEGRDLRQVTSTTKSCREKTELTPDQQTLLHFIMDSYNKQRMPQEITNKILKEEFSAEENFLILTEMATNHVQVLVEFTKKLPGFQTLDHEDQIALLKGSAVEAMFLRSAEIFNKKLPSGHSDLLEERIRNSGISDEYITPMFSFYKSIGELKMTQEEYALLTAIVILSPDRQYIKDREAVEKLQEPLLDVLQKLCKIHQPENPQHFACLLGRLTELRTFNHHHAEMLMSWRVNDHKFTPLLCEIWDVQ
Test: Radioligand binding assay (scintillation proximity, radioligand displacement)
Conditions: 40 nM GST-FXR LBD on SPA beads, test compound 6×10^−9 M to 2.5×10^−5 M, read-out: h-IC50 Binding
Protocol: The following tests were carried out in order to determine the activity of the compounds of formula (I).
To accomplish this, the portions of the sequences encoding the FXR LBD were amplified by polymerase chain reaction (PCR) from a full-length clone by PCR and then subcloned into the plasmid vectors. The final clone was verified by DNA sequence analysis.
The induction, expression, and subsequent purification of GST-LBD fusion protein was performed in E. coli strain BL21(pLysS) cells by standard methods (Current Protocols in Molecular Biology, Wiley Press, ed. Ausubel et al.).
Radioligand Binding Assay
Binding of test substances to the FXR ligand binding domain was assessed in a radioligand displacement assay. The assay was performed in a buffer consisting of 50 mM Hepes, pH 7.4, 10 mM NaCl, 5 mM MgCl2, 0.01% CHAPS. For each reaction well in a 96-well plate, 40 nM of GST-FXR LBD fusion protein was bound to 10 μg glutathione yttrium silicate SPA beads (Pharmacia Amersham) in a final volume of 50 μl by shaking. A radioligand (e.g., 20 nM of 2,N-dicyclohexyl-2-[2-(2,4 dimethoxy-phenyl)-benzoimidazol-1-yl]-acetamide) and test compounds were added, and scintillation proximity counting was performed. All binding assays were performed in 96-well plates and the amount of bound ligand was measured on a Packard TopCount using OptiPlates (Packard).

In order of rising IC50:
1. COc1ccc(-c2nc3cc(F)c(F)cc3n2C(CCc2ccc(C(=O)O)cc2)C2CCCCC2)c(OC)n1 (single isomer, unassigned; (+)) [Example 147, (+)-4-{3-Cyclohexyl-3-[2-(2,6-dimethoxy-pyridin-3-yl)-5,6-difluoro-benzoimidazol-1-yl]-propyl}-benzoic acid]  0.4 nM
2. Cc1cc(-c2nnn[nH]2)cc(C)c1OCC(C1CCCCC1)n1c(-c2ccc(Cl)cc2)nc2ccccc21 (single isomer, unassigned; (+)) [Example 113, (+)-2-(4-Chloro-phenyl)-1-{1-cyclohexyl-2-[2,6-dimethyl-4-(1H-tetrazol-5-yl)-phenoxy]-ethyl}-1H-benzoimidazole]  2 nM
3. CC(C)(Oc1c(F)cc(C(=O)O)cc1F)C(C1CCCCC1)n1c(-c2ccc(Cl)cc2)nc2cc(F)c(F)cc21 (single isomer, unassigned; (+)) [Example 116, (+)-4-{2-[2-(4-Chloro-phenyl)-5,6-difluoro-benzoimidazol-1-yl]-2-cyclohexyl-1,1-dimethyl-ethoxy}-3,5-difluoro-benzoic acid]  2 nM
4. Cc1cc(C(=O)O)cc(C)c1OCC(C1CCCCC1)n1c(-c2ccc(Cl)cc2)nc2ccccc21 (single isomer, unassigned; (+)) [Example 107, (+)-4-{2-[2-(4-Chloro-phenyl)-benzoimidazol-1-yl]-2-cyclohexyl-ethoxy}-3,5-dimethyl-benzoic acid]  10 nM
5. O=C(O)c1cc(F)c(OCC(C2CCCCCC2)n2c(-c3ccc(Cl)cc3)nc3cc(F)c(F)cc32)c(F)c1 (single isomer, unassigned; (+)) [Example 133, (+)-4-{2-[2-(4-Chloro-phenyl)-5,6-difluoro-benzoimidazol-1-yl]-2-cycloheptyl-ethoxy}-3,5-difluoro-benzoic acid]  10 nM
6. COc1ccc(-c2nc3cc(F)c(F)cc3n2C(COc2c(C)cc(-c3nnn[nH]3)cc2C)C2CCCCC2)c(OC)n1 (single isomer, unassigned; (+)) [Example 100, (+)-1-{1-Cyclohexyl-2-[2,6-dimethyl-4-(1H-tetrazol-5-yl)-phenoxy]-ethyl}-2-(2,6-dimethoxy-pyridin-3-yl)-5,6-difluoro-1H-benzoimidazole]  20 nM
7. O=C(O)c1cnc(OCC(C2CCCCC2)n2c(-c3ccc(Cl)cc3)nc3cc(F)c(F)cc32)c(Cl)c1 (single isomer, unassigned; (-)) [Example 24, (−)-5-Chloro-6-{2-[2-(4-chloro-phenyl)-5,6-difluoro-benzoimidazol-1-yl]-2-cyclohexyl-ethoxy}-nicotinic acid]  20 nM
8. Cc1cc(Cl)ccc1-c1nc2cc(F)c(F)cc2n1C(COc1c(F)cc(C(=O)O)cc1F)C1CCCCC1 (single isomer, unassigned; (+)) [Example 126, (+)-4-{2-[2-(4-Chloro-2-methyl-phenyl)-5,6-difluoro-benzoimidazol-1-yl]-2-cyclohexyl-ethoxy}-3,5-difluoro-benzoic acid]  30 nM
9. O=C(O)c1cnc(OCC(C2CCCCC2)n2c(-c3ccc(Cl)cc3)nc3cc(F)c(F)cc32)c2ccsc12 (single isomer, unassigned; (-)) [Example 28, (−)-4-{2-[2-(4-Chloro-phenyl)-5,6-difluoro-benzoimidazol-1-yl]-2-cyclohexyl-ethoxy}-thieno[3,2-c]pyridine-7-carboxylic acid]  40 nM
10. COc1ccc(-c2nc3cc(F)c(F)cc3n2C(COc2c(F)cc(C(=O)O)cc2F)C2CCCCC2)c(OC)n1 (single isomer, unassigned; (+)) [Example 97, (+)-4-{2-Cyclohexyl-2-[2-(2,6-dimethoxy-pyridin-3-yl)-5,6-difluoro-benzoimidazol-1-yl]-ethoxy}-3,5-difluoro-benzoic acid]  50 nM
11. Cc1cc(C(=O)O)ccc1OCC(C1CCCCC1)n1c(-c2ccc(Cl)cc2)nc2cc(F)c(F)cc21 (single isomer, unassigned; (-)) [Example 12, (−)-4-{2-[2-(4-Chloro-phenyl)-5,6-difluoro-benzoimidazol-1-yl]-2-cyclohexyl-ethoxy}-3-methyl-benzoic acid]  50 nM
12. O=C(O)c1cc(F)c(OCC(C2CCCCC2)n2c(-c3ccc(Cl)cc3)nc3ccccc32)c(Cl)c1 (single isomer, unassigned; (+)) [Example 110, (+)-3-Chloro-4-{2-[2-(4-chloro-phenyl)-benzoimidazol-1-yl]-2-cyclohexyl-ethoxy}-5-fluoro-benzoic acid]  60 nM
13. Fc1cc2nc(-c3ccc(Cl)cc3)n(C(COCC3CCCCC3)C3CCCCC3)c2cc1F (single isomer, unassigned; (-)) [Example 2, (−)-2-(4-Chloro-phenyl)-1-(1-cyclohexyl-2-cyclohexylmethoxy-ethyl)-5,6-difluoro-1H-benzoimidazole]  60 nM
14. O=C(O)c1ccc(OCC(C2CCCCC2)n2c(-c3ccc(Cl)cc3)nc3cc(F)c(F)cc32)c(C(F)(F)F)c1 (single isomer, unassigned; (-)) [Example 41, (−)-4-{2-[2-(4-Chloro-phenyl)-5,6-difluoro-benzoimidazol-1-yl]-2-cyclohexyl-ethoxy}-3-trifluoromethyl-benzoic acid]  70 nM
15. O=C(O)c1ccc(OCC(C2CCCCC2)n2c(-c3ccc(Cl)cc3)nc3cc(F)c(F)cc32)cc1 (single isomer, unassigned; (-)) [Example 6, (−)-4-{2-[2-(4-Chloro-phenyl)-5,6-difluoro-benzoimidazol-1-yl]-2-cyclohexyl-ethoxy}-benzoic acid]  90 nM
16. O=C(O)c1cc(F)c(OCC(C2CCCCC2)n2c(-c3ccc(Cl)cc3)nc3ccccc32)c(F)c1 (single isomer, unassigned; (+)) [Example 103, (+)-4-{2-[2-(4-Chloro-phenyl)-benzoimidazol-1-yl]-2-cyclohexyl-ethoxy}-3,5-difluoro-benzoic acid]  100 nM
17. O=C(O)C1(Oc2ccc(OCC(C3CCCCC3)n3c(-c4ccc(Cl)cc4)nc4cc(F)c(F)cc43)cc2)CC1 (single isomer, unassigned; (+)) [Example 122, (+)-1-(4-{2-[2-(4-Chloro-phenyl)-5,6-difluoro-benzoimidazol-1-yl]-2-cyclohexyl-ethoxy}-phenoxy)-cyclopropanecarboxylic acid]  180 nM
18. O=C(O)c1ccc(CCC(C2CCCCC2)n2c(-c3ccccc3)nc3cc(F)c(F)cc32)cc1 (single isomer, unassigned; (+)) [Example 144, (+)-4-[3-Cyclohexyl-3-(5,6-difluoro-2-phenyl-benzoimidazol-1-yl)-propyl]-benzoic acid]  200 nM
19. O=C(O)C1(Oc2ccc(OCC(C3CCCCC3)n3c(-c4ccc(Cl)cc4)nc4cc(F)c(F)cc43)cc2)CCC1 (single isomer, unassigned; (+)) [Example 118, (+)-1-(4-{2-[2-(4-Chloro-phenyl)-5,6-difluoro-benzoimidazol-1-yl]-2-cyclohexyl-ethoxy}-phenoxy)-cyclobutanecarboxylic acid]  310 nM
20. O=C(O)c1c(F)cc(OCC(C2CCCCC2)n2c(-c3ccc(Cl)cc3)nc3cc(F)c(F)cc32)cc1F (single isomer, unassigned; (-)) [Example 44, (−)-4-{2-[2-(4-Chloro-phenyl)-5,6-difluoro-benzoimidazol-1-yl]-2-cyclohexyl-ethoxy}-2,6-difluoro-benzoic acid]  400 nM
21. CC(C)(Oc1ccc(OCC(C2CCCCC2)n2c(-c3ccc(Cl)cc3)nc3cc(F)c(F)cc32)nc1)C(=O)O (single isomer, unassigned; (-)) [Example 49, (−)-2-(6-{2-[2-(4-Chloro-phenyl)-5,6-difluoro-benzoimidazol-1-yl]-2-cyclohexyl-ethoxy}-pyridin-3-yloxy)-2-methyl-propionic acid]  400 nM
22. O=C(O)c1ccc(OCC(C2CCCCC2)n2c(-c3ccc(Cl)cc3)nc3cc(F)c(F)cc32)nc1 (single isomer, unassigned; (-)) [Example 21, (−)-6-{2-[2-(4-Chloro-phenyl)-5,6-difluoro-benzoimidazol-1-yl]-2-cyclohexyl-ethoxy}-nicotinic acid]  600 nM

Same assay, conditions: h-IC50 Binding, 40 nM GST-FXR LBD on SPA beads, test compound 6×10^−9 M to 2.5×10^−5 M

`O=C(O)c1ccc(OCC(C2CCCCC2)n2c(-c3ccc(Cl)cc3)nc3cc(F)c(F)cc32)c(F)c1` (single isomer, unassigned; (-)) [Example 8, (−)-4-{2-[2-(4-Chloro-phenyl)-5,6-difluoro-benzoimidazol-1-yl]-2-cyclohexyl-ethoxy}-3-fluoro-benzoic acid] was tested, and the IC50 was 20 nM.

— patent publication US8088930B2, “Benzimidazole derivatives” (Hoffmann-La Roche Inc., priority 2008, dated 2012)
